Results: patent US6248785A, “IL-8 receptor antagonists” (SmithKline Beecham Corporation, priority 1999, dated 2001)

Biological target: T1, recombinant IL-8 Rb, or Type II, receptor (permissive receptor) (Homo sapiens, UniProt P25025)
T1 construct: expressed in transfected cells; host or cells: Chinese hamster ovary (CHO) cells, membranes
T1 sequence (P25025 1-360): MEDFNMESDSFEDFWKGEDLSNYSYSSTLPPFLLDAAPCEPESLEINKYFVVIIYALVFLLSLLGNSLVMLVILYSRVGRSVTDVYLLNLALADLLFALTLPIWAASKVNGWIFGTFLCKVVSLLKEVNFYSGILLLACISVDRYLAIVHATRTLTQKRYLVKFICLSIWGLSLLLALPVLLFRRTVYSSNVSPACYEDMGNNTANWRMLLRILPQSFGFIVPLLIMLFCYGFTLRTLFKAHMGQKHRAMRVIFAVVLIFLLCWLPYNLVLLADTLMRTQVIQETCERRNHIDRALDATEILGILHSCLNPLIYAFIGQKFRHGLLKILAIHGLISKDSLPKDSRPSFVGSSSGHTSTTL
Test: IL-8 receptor binding assay, permissive model (125I IL-8 / 125I Gro-a, CHO membranes)
Settings: recombinant human IL-8Rb membranes from Chinese hamster ovary cells; 125I IL-8 (0.25 nM) or 125I Gro-a; 1 hour at room temperature
Source text: [^125 I] IL-8 (human recombinant) is obtained from Amersham Corp., Arlington Heights, Ill., with specific activity 2000 Ci/mmol. Gro-a is obtained from NEN-New England Nuclear. All other chemicals are of analytical grade. High levels of recombinant human IL-8 type a and b receptors were individually expressed in Chinese hamster ovary cells as described previously (Holmes, et al., Science, 1991, 253, 1278). The Chinese hamster ovary membranes were homogenized according to a previously described protocol (Haour, et al., J Biol Chem., 249 pp 2195-2205 (1974)). Except that the homogenization buffer is changed to 10 mM Tris-HCL, 1 mM MgSO4, 0.5 mM EDTA (ethylene-diaminetetra-acetic acid), 1 mMPMSF (a-toluenesulphonyl fluoride), 0.5 mg/L Leupeptin, pH 7.5. Membrane protein concentration is determined using Pierce Co. micro-assay kit using bovine serum albumin as a standard. All assays are performed in a 96-well micro plate format. Each reaction mixture contains ^125 I IL-8 (0.25 nM) or ^125 I Gro-a and 0.5 μg/mL of IL-8Ra or 1.0 μg/mL of IL-8Rb membranes in 20 mM Bis-Trispropane and 0.4 mM Tris HCl buffers, pH 8.0, containing 1.2 mM MgSO4, 0.1 mM EDTA, 25 mM NaCl and 0.03% CHAPS. […] The filter is then dried and counted on the Betaplate liquid scintillation counter. […]

Structure (SMILES): N#Cc1ccc(NC(=C[N+](=O)[O-])Nc2ccccc2Br)c(O)c1 [Example 1, 1-Nitro-2-[2-hydroxy-4-cyanophenylamino]-2-[2-bromophenylamino]ethylene]
- IC50 in the permissive models for IL-8 receptor inhibition: < 50 µg/mL
